Two compounds from US20250011347A1, “NOVEL PLASMALOGEN DERIVATIVE” (Institute of Rheological Function of Food Co., Ltd., priority 2021, published 2025) can be followed below.

Test [1] deals with p65 (NFkB). The test is described as follows: LPS-induced p65 nuclear accumulation in MG6 microglial cells (Western blotting). It counts as cell-based, mouse. The conditions noted are these: compound 5 μg/ml 24 hours, then LPS 1 μg/ml 8 hours, FIG. 3. The procedure: Mouse microglial cells (MG6) were cultured using a DMEM medium containing 2% FBS (fetal bovine serum) for 24 hours under conditions with or without the addition of the compound of the present invention, KIT-019 or KIT-020 (5 μg/ml). Thereafter, it was treated with LPS (1 μg/ml) for 8 hours, proteins in the cell nucleus were extracted, and p65 (NFkB) protein expression was detected by Western blotting using NF-κB p65 (Cell Signaling Technology, the clone name: D14E12) as a primary antibody and Anti-Rabbit IgG HRP-linked antibody (Cell Signaling Technology) as a secondary antibody.
(A western blot detects proteins with antibodies after separation by electrophoresis.)

Test [2] concerns IL-1β protein. The experiment in a line: LPS-induced secreted IL-1β protein in MG6 microglial cells (ELISA). It counts as cell-based, mouse. Particulars: compound 5 μg/ml 24 hours, then LPS 1 μg/ml 8 hours, ELISA of culture medium, FIG. 4. As for the experimental part: Five-thousand mouse microglial cells (MG6) were cultured in a 96-well dish containing 100 μl of a DMEM medium containing 2% FBS (fetal bovine serum). Then, 5 μg/ml of each of the compounds of the present invention, KIT-019 and KIT-020 was added and cultured for 24 hours. Thereafter, it was treated with LPS (1 μg/ml) for 8 hours. The culture medium was collected, and the secreted IL-1β protein was measured by ELISA using DuoSet Mouse IL-1β (R&D Systems).
For orientation: ELISA stands for enzyme-linked immunosorbent assay.

Test [3] deals with lysosomes in mouse neurons Neuro2a (N2a). The experiment in a line: Impaired lysosomal acidification in Neuro2a neurons induced by culture supernatant of LPS-treated BV2. It counts as cell-based. The conditions noted are these: N2a cells, compound 24 hours, then 24 hours in supernatant of LPS-treated BV2 with compound; LysoTracker Red; FIG. 10. As for the experimental part: Lysosomes in mouse neurons Neuro2a (N2a) cultured in a normal DMEM medium were labeled with LysoPrime Green (Dojindo). LysoPrime Green is a fluorescent dye that is highly specific for lysosomes which are acidic organelles and that is resistant to pH changes.
Then, N2a is cultured in the culture supernatant of mouse glial cells BV2 treated with the endotoxin lipopolysaccharide (LPS) (1 μg/ml, 18 h) or the culture supernatant of untreated BV2, and labeled with LysoTracker™ Red DND-99 (Thermo Fisher Scientific) which targets acidic organelles.
That is, it was shown that acidification of the lysosomes in the neurons were impaired by glial cell-derived factors in the medium resulting from inflammation.
Each of the compounds of the present invention, KIT-008, KIT-019 and KIT-020 was added to the medium of N2a cells and cultured for 24 hours, and then cultured for another 24 hours in the culture supernatant of BV2 administered with LPS in the presence of each compound.

Test [4] has as its system p65 (NFkB). The experiment in a line: LPS-induced p65 nuclear accumulation in BV2 microglial cells (Western blotting). It counts as cell-based, mouse. Particulars: compound 5 μg/ml 12 hours, then LPS 1 μg/ml 2 hours, FIG. 2. As for the experimental part: Mouse microglial cells (BV2) were cultured using a DMEM medium containing 2% FBS (fetal bovine serum) for 12 hours under conditions with or without the addition of the compound of the present invention, KIT-008 or KIT-020 (5 μg/ml). Thereafter, it was treated with LPS (1 μg/ml) for 2 hours, proteins in the cell nucleus were extracted, and p65 (NFkB) protein expression was detected by Western blotting using NF-κB p65 (Cell Signaling Technology, the clone name: D14E12) as a primary antibody and Anti-Rabbit IgG HRP-linked antibody (Cell Signaling Technology) as a secondary antibody.

In test [5] the test system is c57BL6J mice. The experiment in a line: Water maze test of mice with LPS-induced memory impairment. Particulars: 10 mg/50 kg/day in drinking water 4 weeks, then LPS 7 days, Trial 6, P<0.05, FIG. 12. It counts as in vivo, mouse. As for the experimental part:
Specifically, 8-week-old male c57BL6J mice (5 mice in each group, n=5) were allowed to drink each of the compounds of the present invention (KIT-008 and KIT-020) at a dose of 10 mg/50 kg/day for 4 weeks, and were then subjected to LPS treatment (200 mg/kg/day) for 7 days while allowing them to drink the compound in the same manner. Thereafter, they were subjected to a water maze test for 2 days (3 trials per day).
Escape Latency indicates the time required to arrive at an escape platform (arrival time). Comparisons between groups were performed by ANOVA test and Bonferroni's post hoc test. […] Therefore, the compounds of the present invention are effective in improving brain function (cognitive function).

Test [6] deals with amyloid beta (Aβ) deposition in hippocampal tissue. The test is described as follows: LPS-induced amyloid beta (Aβ) deposition in mouse hippocampal tissue (immunohistochemistry). It counts as in vivo. Particulars: c57BL6J mice hippocampal tissue, 10 mg/50 kg/day in drinking water 4 weeks, then LPS 10 days; FIG. 13, 14. The procedure: Specifically, 8-week-old male c57BL6J mice were allowed to drink each of the compounds of the present invention (KIT-008 and KIT-020) at a dose of 10 mg/50 kg/day for 4 weeks, and were then subjected to LPS treatment (200 mg/kg/day) for 10 days while allowing them to drink the compound in the same manner. The mouse hippocampal tissue was subjected to an immunohistochemistry test using an anti-amyloid beta antibody (a cocktail of two antibodies, 6E10 (BioLegend) and 82E1 (Immuno-Biological Laboratories Co, Ltd)). DAPI was used to stain a cell nucleus. In FIG. 13, the scale bar is 100 μm and the arrows indicate amyloid beta that deposited. The data in FIG. 14 represent the average number of amyloid beta deposition in each group (3 mice, n=3). In the LPS group, amyloid beta deposition was observed compared to the control group, but in the KIT-008 group and the KIT-020 group, amyloid beta deposition caused by LPS was suppressed.

In test [7] the test system is inducible nitric oxide synthase (iNOS). The experiment in a line: LPS-induced iNOS expression in mouse hippocampal tissue (immunohistochemistry). The test is classed as in vivo. Particulars: c57BL6J mice hippocampal tissue, 10 mg/50 kg/day in drinking water 4 weeks, then LPS 10 days; FIG. 15, 16. The procedure:
Specifically, 8-week-old male c57BL6J mice were allowed to drink each of the compounds of the present invention (KIT-008 and KIT-020) at a dose of 10 mg/50 kg/day for 4 weeks, and were then subjected to LPS treatment (200 mg/kg/day) for 10 days while allowing them to drink the compound in the same manner. The mouse brain tissue was subjected to an immunohistochemistry (IHC) study using an anti-NeuN antibody (a neuron marker, Millipore MAB377) and an anti-iNOS antibody (an inflammatory marker, Invitrogen PA1-036). DAPI was used to stain a cell nucleus.
In FIG. 15, the scale bar is 50 μm and the arrows indicate iNOS-positive neurons. The data in FIG. 16 represents the average value for each group (3 mice, n=3). In the LPS group, the number of iNOS-positive neurons increased compared to that in the control group, but in the KIT-008 group and the KIT-020 group, the increase in iNOS-positive neurons caused by LPS was suppressed.

Test [8] concerns microglia (Iba1-positive cells) and astrocytes (GFAP-positive cells) in hippocampal tissue. The test is described as follows: LPS-induced amoeboid shaped microglia and astrocytes increase in mouse hippocampal tissue (immunohistochemistry). The test is classed as in vivo. The conditions noted are these: c57BL6J mice hippocampal tissue, 10 mg/50 kg/day in drinking water 4 weeks, then LPS 10 days. The procedure: Specifically, 8-week-old male c57BL6J mice were allowed to drink each of the compounds of the present invention (KIT-008 and KIT-020) at a dose of 10 mg/50 kg/day for 4 weeks, and were then subjected to LPS treatment (200 mg/kg/day) for 10 days while allowing them to drink the compound in the same manner. The mouse brain tissue was subjected to an immunohistochemistry (IHC) study using Iba1 (a microglia marker, Fujifilm 019-19741) and GFAP (an astrocyte marker, Sigma C9205). DAPI was used to stain a cell nucleus. In FIG. 17, the scale bar is 100 μm. The data in FIG. 18 represent the percentages of amoeboid shaped microglia and amoeboid shaped astrocytes (upper graphs) and the number of astrocytes (GFAP-positive cells) (a lower graph) in each group (3 mice, n=3). In the LPS group, the amoeboid shaped microglia (Iba1-positive cells) and the amoeboid shaped astrocytes (GFAP-positive cells) increased compared to the control group. In addition, the astrocytes (GFAP-positive cells) increased. However, in the KIT-008 group and the KIT-020 group, the LPS-induced amoeboid shaped microglia (Iba1-positive cells) increase and amoeboid shaped astrocytes (GFAP-positive cells) increase and astrocytes (GFAP-positive cells) increase were suppressed.

Structures are written as SMILES.

For the compound `CCCCCCCC/C=C\CCCCCCCC(=O)O[C@H](COC/C=C/CCCCCCCCCCCCCCC)COP(=O)(O)OCCN` [KIT-019, 2-((hydroxy((R)-3-3-(((E)-octadec-2-en-1-yl)oxy)-2-(oleoyloxy)propyl)phosphoryl)oxy)ethane-1-ammonium 2,2,2-trifluoroacetate], the “LPS-induced p65 nuclear accumulation” value in test [1] is on record as “significantly suppressed”. Also, the “LPS-induced inflammatory cytokine IL-1β protein expression” value in test [2] was “significantly reduced”. Further, the “impaired acidification of lysosomes in neurons caused by glial cell-derived factors” value in test [3] is listed as “ameliorated”.

In the case of `CCCCC/C=C\C/C=C\C/C=C\C/C=C\CCCC(=O)O[C@H](COC/C=C/CCCCCCCCCCCCCCC)COP(=O)(O)OCCN` [KIT-020, 2-((hydroxy((R)-2-(((5Z,8Z,11Z,14Z)-icosa-5,8,11,14-tetraenoyl)oxy)-3-(((E)-octadec-2-en-1-yl)oxy)propoxy)phosphoryl)oxy)ethane-1-ammonium 2,2,2-trifluoroacetate], the “LPS-induced p65 nuclear accumulation” value in test [4] is “significantly suppressed”. Also, in test [1], the “LPS-induced p65 nuclear accumulation” value was “significantly suppressed”. Also, in test [2], the “LPS-induced inflammatory cytokine IL-1β protein expression” value is “significantly reduced”. Besides, in test [3], the “impaired acidification of lysosomes in neurons caused by glial cell-derived factors” value is “ameliorated”. The “memory retention (Escape Latency) compared to the LPS group” value in test [5] is reported as “improvement in memory retention”. For the same compound, the “amyloid beta deposition caused by LPS” value in test [6] is on record as “suppressed”. The “increase in iNOS-positive neurons caused by LPS” value in test [7] is “suppressed”. Also, in test [8] (FIG. 17, 18), the “LPS-induced amoeboid shaped astrocytes (GFAP-positive cells) increase” value is listed as “suppressed” and the “LPS-induced amoeboid shaped microglia (Iba1-positive cells) increase” value is listed as “suppressed”. The “LPS-induced astrocytes (GFAP-positive cells) increase (number)” value in test [8] (FIG. 18 lower graph) is on record as “suppressed”.
